Patent US6835720B2, “Compounds having antiviral activity” (Nissin Food Products Co., Ltd., priority 1996, dated 2004)

Legend:
AIDS virus (HIV-1, IIIb) = assay type: cell-based; details: HIV-1 IIIb in H9 cells, p24 in culture supernatant by ELISA on the 6th day
Protocol: (§1) Samples of various concentrations (25 μl) are distributed into a 24-well microplate, immediately added with human T cells (H9 cell line, 1.2×10^5/ml) (1 ml), covered, and incubated at 37° C. for 1 h. Then, AIDS virus (HIV-1, IIIb, 100 TCID 50) (25 μl) is added to each well and thoroughly mixed, covered again, and incubated under the CO2 atmosphere at 37° C. for 3 days. On the fourth day, aliquots (200 μl) of the culture medium from each well are transferred into a fresh microplate. The growth medium (500 μl) is added to each well, and further incubated for 2 days.
(§2) On the 6th day, aliquots (90 μl) of the culture supernatant are withdrawn, and assayed the amount of p24, a constituent of HIV-1, by ELISA method using the anti-p24 antibody to assess the growth of said virus. Also, using the remaining cell culture suspension (100 μl), viable cells are counted by the MTT method. Experimental values are expressed as the ratios (%) to the negative control value (measured using the solvent to dissolve test compounds as the sample) to represent the anti-HIV activity and cytotoxicity. Then, for the unified representation of the anti-HIV activity and cytotoxicity, the concentrations of test compounds at their 50% values are obtained from the activity-concentration curves and the cytotoxicity-concentration, and represented as IC50 and CC50, respectively.

[1] = tested on: human T cells (H9 cell line); test: Cytotoxicity, viable cells counted by the MTT method; assay type: cell-based
Protocol: as §1, §2

human plasma = test: Anti-coagulation activity in human plasma; details: calcium chloride, 37° C. for 30 min, judged with the naked eye
mice = test: Toxicity study, intravenous administration to mice; assay type: in vivo; details: intravenously administered
Protocol: Compounds were intravenously administered to mice, and LD50s (mg/kg) were determined.

[2] = tested on: Herpes simplex II virus (HSVII); test: Plaque reduction assay, Herpes simplex II virus; assay type: cell-based
Protocol: (§3) Antiviral activity against human Parainfluenza virus, Respiratory syncytial virus (RSV) and Herpes simplex II virus (HSVII) was determined by the plaque reduction assay, while that against Feline immunodeficiency virus (FIV) and Feline leukemia virus (FeLV) by the reverse transcriptase assay and ELISA, respectively.
(§4) Each virus was obtained from ATCC. As host cells, VERO cells were used for Parainfluenza virus, and HEP2 cells for other viruses.
(§5) To fibroblasts growing in a T150 flask were added virus-infected cells, and the cells were incubated until they reached 60-80% infection. Cells were trypsinized, recovered and used as the virus stock. As the cell culture medium was used E-MEM containing 2-5% FBS, 100 U/ml Penicillin, 2.5 μg/ml Aniphotericin and 10 μg/ml Gentamycin.
(§6) Compound related to Example 29 was appropriately diluted to the concentrations of 500, 100, 50, 10 and 5 μg/ml with the culture medium or methyl cellulose. As the reference drug for HSV II was used Acyclovir. […]
(§7) Cells were cultured at 36-38° C. under the 5-7% CO2 atmosphere, and examined for the appearance of plaques under microscope. […] Number of plaques counted in the sample well was compared with that in the virus control well, and the decrease in the number of plaques was used to express the antiviral activity.

[3] = tested on: Respiratory syncytial virus (RSV); test: Plaque reduction assay, Respiratory syncytial virus; assay type: cell-based; details: HEP2 cells
Protocol: as §3, §4, §5, §6, §7

[4] = tested on: human Parainfluenza virus; test: Plaque reduction assay, Parainfluenza virus; assay type: cell-based; details: VERO cells
Protocol: as §3, §4, §5, §6, §7

[5] = tested on: Feline immunodeficiency virus (FIV); test: Reverse transcriptase assay, Feline immunodeficiency virus; assay type: cell-based; details: CRFK cells
Protocol: as §3
(§8) Each virus was obtained from ATCC. FIV was cultured with CRFK cells in Eagle's balanced salt medium containing 10% FBS, and the supernatant was used as the virus stock. As FeLV was used ATCC VR-717.
(§9) Compound related to Example 29 was diluted with the medium to similar concentrations described above.
(§10) For each single strain of virus, the assay was performed in the following combinations of conditions.
(§11) After CRFL cells were cultured in monolayer in 96-well microplates, the supernatant was discarded. […]
(§12) Using supernatants as the sample from the cell control well, the virus control well and the test well, the reverse transcriptase of FIV or FeLV antigen contained therein were quantitated using assay kits from Amersham LIFESCIENCE and Synbiotics, respectively. Anti-viral activity was expressed as that ratio (%) of the value of the test well to that of the virus control well after both values were subtracted with the value of the cell control well, respectively.

[6] = tested on: Feline leukemia virus (FeLV); test: FeLV antigen ELISA, Feline leukemia virus; assay type: cell-based
Protocol: as §3, §8, §9, §10, §11, §12

In the case of `CCCCCCCCCCCCCCCCCCCCCCOCC(COC1(C(=O)[O-])CC(OS(=O)(=O)[O-])C(NC(C)=O)C(C(OS(=O)(=O)[O-])C(COS(=O)(=O)[O-])OS(=O)(=O)[O-])O1)OCCCCCCCCCCCCCCCCCCCCCC.[Na+].[Na+].[Na+].[Na+].[Na+]` [Example 13, 3-O-[Sodium{5-acetamido-3,5-dideoxy-4,7,8,9-tetra-O-(sodiumoxysulfonyl)-D-glycero-β-D-galacto-2-nonulopyranosyl}onate]-1,2-di-O-docosyl-Sn-glycerol], the IC50 (AIDS virus (HIV-1, IIIb)) is reported as 1.6 µM, the CC50 [1] is reported as over 200 µM and the “Minimum concentration exhibiting anticoagulant action” value (human plasma) is reported as 1200 µM. For the same molecule, the “LD50” value (mice) was 2000 mg/kg.
Molecule `Nc1nc2c(ncn2COCCO)c(=O)[nH]1` [Acyclovir, reference compound] has an IC50 ([2]; HEp-2, HEP2 cells) of 21.6 µM.
In the case of `CCCCCCCCCCCCCCCCCCCCCCOC[C@H](CO[C@]1(C(=O)[O-])C[C@H](OS(=O)(=O)[O-])[C@@H](NC(C)=O)[C@H]([C@H](OS(=O)(=O)[O-])[C@@H](COS(=O)(=O)[O-])OS(=O)(=O)[O-])O1)OCCCCCCCCCCCCCCCCCCCCCC.[Na+].[Na+].[Na+].[Na+].[Na+]` [Example 12, 3-O-[Sodium{5-acetamido-3,5-dideoxy-4,7,8,9-tetra-O-(sodiumoxysulfonyl)-D-glycero-α-D-galacto-2-nonulopyranosyl}onate]-1,2-di-O-docosyl-Sn-glycerol], the IC50 (AIDS virus (HIV-1, IIIb)) is reported as 0.8 µM, the CC50 [1] is reported as over 200 µM and the “Minimum concentration exhibiting anticoagulant action” value (human plasma) is reported as 900 µM. For the same molecule, the “LD50” value (mice) was 2000 mg/kg.
For `CCCCCCCCCCCCCCCCCCCCCCOCC(C)(COCCCCCCCCCCCCCCCCCCCCCC)COC1(C(=O)[O-])CC(OS(=O)(=O)[O-])C(NC(C)=O)C(C(OS(=O)(=O)[O-])C(COS(=O)(=O)[O-])OS(=O)(=O)[O-])O1.[Na+].[Na+].[Na+].[Na+].[Na+]` [Example 29, Sodium[2,2-bis(docosyloxymethyl)propyl 5-acetamido-3,5-dideoxy-4,7,8,9-tetra-O-(sodiumoxysulfonyl)-D-glycero-α-D-galacto-2-nonulopyranosid]onate], the IC50 (AIDS virus (HIV-1, IIIb)) was 1.6 µM, the CC50 [1] was over 20 µM and the IC50 ([2]; HEP2 cells) was 45.2 µM. It also gave an IC50 [3] of 5.1 µM, an IC50 [4] of 37.6 µM and an IC50 [5] of 4.5 µM. The IC50 [6] was 58.3 µM, the “Minimum concentration exhibiting anticoagulant action” value (human plasma) was 900 µM and the “LD50” value (mice) was 2000 mg/kg.
